Test results taken from PubChem BioAssay AID2060490 (Molecular Pharmacology Branch, DTP, NCI, 2025).

System: 885512-296-R-J2-PDC complex spheroid viability
Assay: Anticancer human tumor 885512-296-R-J2-PDC patient-derived breast carcinoma cell line growth inhibition [GQUAD]
Details: for IC50: curve of first compound; for viability, T/C: stronger effect = lower value
Source text: DNA G-quadruplex Stabilizer Agents in Combinations in Complex Spheroids
A high-throughput screen of multi-cell type tumor spheroids was designed to identify active combinations of DNA G-quadruplex stabilizer agents and targeted small molecules. Complex spheroids include a stromal component modeled by human endothelial cells (HUVEC) and fibroblasts modeled by human mesenchymal stem cells (MSCs). The concentration ranges selected for each drug and investigational agent were based upon clinically achievable concentrations if the clinical Cmax of the agent was known.
Compounds. The drugs and investigational agents: pidnarulex (CX-5461; NSC782164), APTO-253 (NSC789042), BRACO-19 (NSC847499), peposertib (NSC802822), ceralasertib (NSC780249), elimusertib (NSC800525), camonsertib (NSC841442), AZD-1390 (NSC803789), olaparib (NSC753686), talazoparib (NSC767125), ART-558 (NSC835418), sotorasib (NSC818433), MRTX-1133 (NSC836407), SN-38 (NSC673596), topotecan (NSC609699), etoposide (NSC141540), doxorubicin (NSC123127), gemcitabine (NSC613327), 5-fluorouracil (NSC19893), paclitaxel (NSC125973), vemurafenib (NSC761431), panobinostat (NSC761190), R-306465 (JNJ-16241199; NSC773264), adavosertib (NSC754352), TP-3654 (NSC805149), carboplatin (NSC241240), KSQ-4279 (NSC840948), and staurosporine (NSC755774) were obtained from the National Cancer Institute (NCI) Developmental Therapeutics Program Chemical Repository (34). The FDA-approved anticancer drug set is available from the NCI Developmental Therapeutics Program. […] The stock solutions were prepared in dimethyl sulfoxide (DMSO, Sigma-Aldrich, St. Louis, MO, cat. D2650) at 800-fold the tested concentration and stored at -70 degrees C prior to their use. All drugs and investigational agents were tested over a range starting from a high concentration at or near the clinical Cmax and decreasing in half-log increments. If the clinical Cmax for an agent had not been determined, the highest concentration tested was 10 microM.
2.3 Cell Culture. All cells were maintained in an incubator at 37 degrees C and 5% CO2 with 95% humidity. The PDC lines were cultured according to standard operating procedures established by the NCI PDMR. All PDCs were thawed and cultured in Matrigel-coated flasks prepared with a working solution of 1X Ham's F-12 nutrient mix, without supplementation (Invitrogen, cat. 11765054), 100 U/mL penicillin-streptomycin (Invitrogen, cat. 15140122), and 2.5% Matrigel (Corning Inc., cat. 354248) for the first three passages. The 857933-349-R-J2-PDC line was cultured in 6C/Colon 1B media, which includes advanced DMEM/F-12 (Thermo Fisher Scientific, cat. 12634028), 10 mM HEPES (Thermo Fisher Scientific, cat. 15630080), 1X GlutaMAX supplement (Thermo Fisher Scientific, cat. 35050061), 0.1 mg/mL primocin (InvivoGen, cat. ant-pm-2), 10% defined fetal bovine serum, heat inactivated (HyClone Laboratories Inc., cat. SH30070.03HI), 50% L-WRN conditioned media (ATCC, cat. CRL-3276), 1.25 mM N-Acetyl-L-cysteine (Sigma-Aldrich, cat. A9165), 10 mM nicotinamide (Sigma-Aldrich, cat. N0636), 1X B-27 supplement (Thermo Fisher Scientific, cat. 17504044), 1X N-2 supplement (Thermo Fisher Scientific, cat. 17502048), 10 microM Y-27632 dihydrochloride (Tocris Bioscience, cat. 1254), and 50 ng/mL human EGF recombinant protein (Thermo Fisher Scientific, cat. PHG0311). The 485176-168-R4-J1-PDC line was cultured in Panc media, which includes all 6C/Colon 1B media components plus 100 ng/mL human FGF-10 (Thermo Fisher Scientific, cat. 100-26), 500 nM SB-431542 (Selleckchem, cat. S1067), and gastrin (Tocris, cat. 3006).
[…]

[1] = second compound 0.0316 µM, first compound 0.0316 µM
[2] = second compound 0.0316 µM, first compound 0.1 µM
[3] = second compound 0.0316 µM, first compound 0.316 µM
[4] = second compound 0.0316 µM, first compound 1 µM
[5] = second compound 0.0316 µM, first compound 3.16 µM
[6] = second compound 0.0316 µM, first compound 10 µM
[7] = second compound 0.1 µM, first compound 0.0316 µM
[8] = second compound 0.1 µM, first compound 0.1 µM
[9] = second compound 0.1 µM, first compound 0.316 µM
[10] = second compound 0.1 µM, first compound 1 µM
[11] = second compound 0.1 µM, first compound 3.16 µM
[12] = second compound 0.1 µM, first compound 10 µM
[13] = second compound 0.316 µM, first compound 0.0316 µM
[14] = second compound 0.316 µM, first compound 0.1 µM
[15] = second compound 0.316 µM, first compound 0.316 µM
[16] = second compound 0.316 µM, first compound 1 µM
[17] = second compound 0.316 µM, first compound 3.16 µM
[18] = second compound 0.316 µM, first compound 10 µM
[19] = second compound 1 µM, first compound 0.0316 µM
[20] = second compound 1 µM, first compound 0.1 µM
[21] = second compound 1 µM, first compound 0.316 µM
[22] = second compound 1 µM, first compound 1 µM
[23] = second compound 1 µM, first compound 3.16 µM
[24] = second compound 1 µM, first compound 10 µM
[25] = second compound 3.16 µM, first compound 0.0316 µM
[26] = second compound 3.16 µM, first compound 0.1 µM
[27] = second compound 3.16 µM, first compound 0.316 µM
[28] = second compound 3.16 µM, first compound 1 µM
[29] = second compound 3.16 µM, first compound 3.16 µM
[30] = second compound 3.16 µM, first compound 10 µM
[31] = second compound 10 µM, first compound 0.0316 µM
[32] = second compound 10 µM, first compound 0.1 µM
[33] = second compound 10 µM, first compound 0.316 µM
[34] = second compound 10 µM, first compound 1 µM
[35] = second compound 10 µM, first compound 3.16 µM
[36] = second compound 10 µM, first compound 10 µM
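Note: spheroids exposed to the compounds for one week.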
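Throughout, for viability, T/C: percent of tumor spheroid viability relative to DMSO vehicle control wells.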

For `C=CC(=O)N1CCN(c2nc(=O)n(-c3c(C)ccnc3C(C)C)c3nc(-c4c(O)cccc4F)c(F)cc23)C(C)C1` (centres undefined) + CN(C)c1ccc(Nc2c3ccc(NC(=O)CCN4CCCC4)cc3nc3cc(NC(=O)CCN4CCCC4)ccc23)cc1, the IC50 (second compound 0.0316 µM) was > 10000 nM, the IC50 (second compound 0.1 µM) was > 10000 nM and the IC50 (second compound 0.316 µM) was > 10000 nM. For the same compound, the IC50 (second compound 1 µM) was > 10000 nM, the IC50 (second compound 3.16 µM) was > 10000 nM and the IC50 (second compound 10 µM) was < 31.6 nM. It also gave a viability, T/C [1] of 104%, a viability, T/C [2] of 94.9% and a viability, T/C [3] of 108%. The viability, T/C [4] was 103%, the viability, T/C [5] was 102% and the viability, T/C [6] was 105%. For the same compound, the viability, T/C [7] was 111%, the viability, T/C [8] was 99.5% and the viability, T/C [9] was 101%. It also gave a viability, T/C [10] of 108%, a viability, T/C [11] of 114% and a viability, T/C [12] of 100%. For the same compound, the viability, T/C [13] was 107%, the viability, T/C [14] was 97.9% and the viability, T/C [15] was 103%. For the same compound, the viability, T/C [16] was 119%, the viability, T/C [17] was 99.9% and the viability, T/C [18] was 105%. The viability, T/C [19] was 101%, the viability, T/C [20] was 88.8% and the viability, T/C [21] was 101%. It also gave a viability, T/C [22] of 117%, a viability, T/C [23] of 102% and a viability, T/C [24] of 108%. It also gave a viability, T/C [25] of 106%, a viability, T/C [26] of 115% and a viability, T/C [27] of 120%. The viability, T/C [28] was 129%, the viability, T/C [29] was 103% and the viability, T/C [30] was 77.7%. For the same compound, the viability, T/C [31] was 27%, the viability, T/C [32] was 21.7% and the viability, T/C [33] was 21.9%. The viability, T/C [34] was 18.9%, the viability, T/C [35] was 20.6% and the viability, T/C [36] was 10.3%.

Work on `COc1cccc2c1C(=O)c1c(O)c3c(c(O)c1C2=O)CC(O)(C(=O)CO)CC3OC1CC(N)C(O)C(C)O1` (centres undefined) + CN(C)c1ccc(Nc2c3ccc(NC(=O)CCN4CCCC4)cc3nc3cc(NC(=O)CCN4CCCC4)ccc23)cc1 yielded an IC50 (second compound 0.0316 µM) of 69.7 nM, an IC50 (second compound 0.1 µM) of 72.6 nM and an IC50 (second compound 0.316 µM) of 78.8 nM. The IC50 (second compound 1 µM) was 76.6 nM, the IC50 (second compound 3.16 µM) was 70.6 nM and the IC50 (second compound 10 µM) was < 31.6 nM. The viability, T/C [1] was 83.5%, the viability, T/C [2] was 29.8% and the viability, T/C [3] was 23.5%. The viability, T/C [4] was 6.89%, the viability, T/C [5] was 0.38% and the viability, T/C [6] was 3.01%. The viability, T/C [7] was 90.9%, the viability, T/C [8] was 31.5% and the viability, T/C [9] was 18.5%. The viability, T/C [10] was 8.24%, the viability, T/C [11] was 1.04% and the viability, T/C [12] was 2.8%. The viability, T/C [13] was 95.3%, the viability, T/C [14] was 35.2% and the viability, T/C [15] was 20.9%. For the same compound, the viability, T/C [16] was 7.15%, the viability, T/C [17] was 1.27% and the viability, T/C [18] was 3.37%. It also gave a viability, T/C [19] of 95%, a viability, T/C [20] of 30% and a viability, T/C [21] of 26.1%. The viability, T/C [22] was 8.92%, the viability, T/C [23] was 0.75% and the viability, T/C [24] was 3.6%. It also gave a viability, T/C [25] of 81.5%, a viability, T/C [26] of 34.8% and a viability, T/C [27] of 18.1%. The viability, T/C [28] was 8.3%, the viability, T/C [29] was 3.01% and the viability, T/C [30] was 2.07%. It also gave a viability, T/C [31] of 26.5%, a viability, T/C [32] of 20% and a viability, T/C [33] of 9.35%. It also gave a viability, T/C [34] of 5.9%, a viability, T/C [35] of 0.9% and a viability, T/C [36] of 1.52%.
